Columns and labels:
[1] = system: APTT of healthy mice; test: Effects on APTT of healthy mice; assay type: in vivo, KM mice; conditions: 5 mg/kg i.g.; for APTT (sec): KM mice, blood collected 1 hour after administration, x ± SD, 10 mice per group; for anticoagulant effect (APTT) compared with positive drug Apixaban: mice, 1 h after administration, same dose
From the text: Test for four coagulation parameters (including prothrombin time (PT), activated partial thromboplastin time (APTT), thrombin time (TT) and fibrinogen (FIB)) belongs to one of clinical inspection items, and is necessary to thrombotic disease inspections or before the surgery. APTT mainly reflects whether the intrinsic coagulation system status is normal or not. Accordingly, the APTT value is used as a detection indicator in this test of the present invention. The anticoagulant effects of the compounds prepared in the Examples of the present invention were evaluated through the effects thereof on APTT of mice.
(§1) KM mice, weighing 28-30 g, male, 170 mice, provided by Chengdu Dashuo Biological Technology Co., Ltd.; Production facility license: SCXK (Chuan) 2008-24. Animals were housed in the animal room after purchased, adaptively observed for at least three days, and used for assays unless they were qualified for the quarantine standard.
(1) Grouping: mice were grouped and tested according to Table 1, wherein there were 10 mice in each group.
Mice in each group were administrated with the corresponding investigational drugs (mice in control group were administrated with the normal saline). At 1 hour after administration, blood was collected into 0.5 ml vacuum blood-collection tube containing sodium citrate from mice orbit. APTT values of animals were measured after collecting the blood samples.
Excel was used for statistics, experimental data were expressed as (x±SD), and two-sided T-test method was used to statistically compare the experimental data among multiple groups.

[2] = Pharmacokinetic studies on healthy rats; assay type: in vivo; conditions: male, rat, po, SD rats, 10 mg/kg i.g., plasma; for AUC(0-t): read-out: AUC0-24
From the text: SD rats were used as test animals, and LC/MS/MS method was applied for measuring the drug concentrations of rats at different time after administrating the compounds of the present invention by gavage, respectively. Pharmacokinetic behaviors of the compounds of the present invention on rats were studied, so as to evaluate the pharmacokinetic characteristics thereof.
as §1, with “SD rats,” for “KM mice,”, “180-220” for “28-30”, “40 rats, 5 rats in each group,” for “170 mice,”
3.1 Grouping: the rats were randomly grouped according to Table 3, with no significant difference among the groups;
Rats in each group was administrated by gavage with the corresponding investigational drugs according to Table 3, at 5 min, 10 min, 20 min, 30 min, 1 h, 2 h, 4 h, 6 h, 8 h, 10 h, 12 h, 24 h after administration, 0.5 ml of blood was taken into the vacuum blood-collection tubes containing heparin sodium, and centrifuged at 5,000 rpm to obtain plasma which was stored at −20° C.
50 μL plasma at each time after administration was taken, then 150 μL of acetonitrile was added, which was subjected to vortex at 1500 rpm for 2 minutes. Solution was centrifuged for 15 minutes (3500 r/min), after that 10 μL supernatant was analyzed by HPLC/MS/MS.
The pharmacokinetic behaviors of the investigational compounds were subjected to compartmental model fitting, and DAS 2.0 software was used to calculate the main pharmacokinetic parameters.

[3] = target: human FXa (Homo sapiens, UniProt P00742); test: Human FXa inhibition assay (fluorogenic substrate); assay type: biochemical; conditions: human FXa 1 nM, substrate 106.7 μM, 30 minutes at room temperature, pH 8.0
Description: Inhibitory effects of the compounds of the present invention on human FXa were studied, to measure IC50 values thereof on human FXa.
human FXa enzyme (Sekisui Diagnostics, REF 526);
Fluorogenic substrate for the FXa assay (American diagnostic, Product No. 222F);
Buffer: 20 mM Tris-HCl, 200 mM NaCl, 2.5 mM CaCl2, pH 8.0.
(2) 10 mM of each compound was 5-fold diluted serially with buffer to different concentrations (from 40 μM to 0.00002048 μM);
(3) 6 μL of the above diluted solutions of Step (2) were added into each well of 384-well plate to make a final volume of 60 μL, and the final concentration of the compound ranged from 4 μM to […];
(4) 30 μL of human FXa enzyme (2 nM) was added into each well, with a final concentration of 1 nM;
(5) 24 μL human FXa fluorescent enzyme substrate (266.7 μM) was added into each well, with a final concentration of 106.7 μM;
(6) the plate was gently shaked for 5 minutes and then incubated for 30 minutes at room temperature, with avoidance from light;
(7) fluorescence signal was read at 360/440 nm, the inhibition percentage was measured, and 4 Parameter Logistic Model in Xlfit software was employed to calculate IC50.

Sequence of human FXa (P00742 235-488 limits assumed): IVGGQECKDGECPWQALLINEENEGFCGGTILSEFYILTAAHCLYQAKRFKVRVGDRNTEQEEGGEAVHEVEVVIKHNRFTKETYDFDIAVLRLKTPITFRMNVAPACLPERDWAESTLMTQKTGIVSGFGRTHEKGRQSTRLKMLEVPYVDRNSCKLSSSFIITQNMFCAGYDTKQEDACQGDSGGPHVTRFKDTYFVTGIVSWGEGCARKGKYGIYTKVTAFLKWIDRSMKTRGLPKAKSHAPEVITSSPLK
Sequence of human FXa (P00742 41-179 partner limits assumed): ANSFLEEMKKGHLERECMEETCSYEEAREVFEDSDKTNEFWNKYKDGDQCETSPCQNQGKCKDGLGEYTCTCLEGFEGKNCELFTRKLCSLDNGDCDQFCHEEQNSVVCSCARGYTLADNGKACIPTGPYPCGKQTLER

SMILES	APTT (sec) [1]	anticoagulant effect (APTT) compared with positive drug Apixaban [1]	Cmax [2]	Tmax [2]	half-life [2]	AUC(0-t) [2]	IC50 [3]
Cc1cc(N2CCc3c(C(N)=O)nn(-c4cc(F)cc(F)c4)c3C2=O)ccc1N1CCCC1=O [Example 17, 1-(3,5-difluoro-phenyl)-7-oxo-6-[3-methyl-4-(2-oxo-pyrrolidin-1-yl)phenyl]-4,5,6,7-tetrahydro-1H-pyrazolo[3,4-c]pyridine-3-carboxamide]	30.79 ± 2.91 * * ^ΔΔ sec	significantly better than positive drug Apixaban	9670 ng/mL	15 min	408 min	38600 ng·h/mL	0.015 nM
COc1ccc(-n2nc(C(N)=O)c3c2C(=O)N(c2ccc(N4CCCC4=O)c(C)c2)CC3)cc1F [Example 18, 1-(3-fluoro-4-methoxyphenyl)-7-oxo-6-[3-methyl-4-(2-oxo-pyrrolidin-1-yl)phenyl]-4,5,6,7-tetrahydro-1H-pyrazolo[3,4-c]pyridine-3-carboxamide]	28.96 ± 2.42 * * ^ΔΔ sec	significantly better than positive drug Apixaban	8970 ng/mL	15 min	408 min	35500 ng·h/mL	0.091 nM
